Source: patent US11684598B2, “Use of cannabinoids in the treatment of epilepsy” (priority 2015, dated 2023)
Values joined by “and” are separate entries in the source; they are usually repeats but may differ in a detail not shown here. Equal values may be shown once. Read-outs that look alike come from different tables or passages of the source.

What was measured:
[1] = tested on: PTZ-induced generalised seizures; experiment: Acute PTZ-induced model of generalised seizure; type: in vivo, rat
Protocol: Adult male Wistar Kyoto rats were used in the acute PTZ model of seizure (>P24, 70-110 g). Animals were housed five per cage in a heat regulated room (21° C.) on a 12:12 h day/night cycle (lights on 0800) in 50% humidity and given ad libitum access to standard laboratory chow (PCD Mod C, Special Diet Services, Wiltham, UK) and water. All procedures were undertaken during white light hours.
A PTZ (Sigma-Aldrich, Poole, UK) stock solution was made in 0.9% w/v NaCl for the experimental procedure.
PTZ antagonises GABA inhibition via binding to the t-butyl-bicycl-phosphorothionate site of GABAA receptors. Moreover, this chemically-induced model can be indicative of effects against absence seizures. PTZ (90 mg/kg) was used to induce seizures in adult male Wistar rats (n=15 per group) with experiment dose randomised using a Latin square design. Animals were placed in their 6 L Perspex tanks and allowed to acclimatise to their environment for 10 min, before receiving one of the cannabinoid doses (see Table 5) in vehicle, or volume-matched dose of vehicle alone to serve as a negative control. 60 min after test compound or vehicle administration, animals were injected with PTZ (90 mg/kg, i.p.) to induce seizures and animal behaviour was recorded for 30 min.
Videos of PTZ-induced seizures were scored offline with a standard seizure severity scale appropriate for generalised seizures (Table 6).
Videos of seizure behaviour generated from the custom built observational system were scored offline according to seizure scales appropriate for PTZ model (Table 6) using Observer Video-Pro software (Noldus, Wageningen, The Netherlands). For the PTZ model of seizure, intra- and inter-observer agreements of behaviour scoring were assessed using the reliability analysis function of the observer Video-Pro software: 1 s tolerance window; Cohen's Kappa coefficient≥0.95.
Specific markers of seizure behaviour and development were assessed and compared between vehicle control and drug groups. The latency (s) to seizure onset and the percentage of animals that developed tonic-clonic seizures was noted (see Table 6). In addition, the maximum seizure severity and the percentage mortality in each group were determined for the acute PTZ model of generalised seizure.
The effect of drug on latency to seizure onset and maximum seizure severity were assessed using Krustal-Wallis with post-hoc Mann-Whitney U-tests. Drug effects on the percentage of animals that developed tonic-clonic seizures and percentage mortality were assessed using Chi-squared with post-hoc Fisher exact tests. In all cases, P≤0.05 was considered significant.

[2] = Toxicokinetics from toxicological studies in dogs, daily oral (gavage) administration; type: in vivo, dog; settings: for Vd/F: read-out: Vz/F
Protocol: Samples were taken from the jugular vein into lithium heparin. Samples were mixed gently by hand then continuously for at least 2 minutes on automatic mixer and placed in a Kryorack until centrifugation, which was carried out at approximately 4° C. as soon as practicable. The resultant plasma was separated under low light conditions, transferred to uniquely labelled clear glass vials, placed in light proof boxes and frozen immediately at <−50° C.

seizures [3] = settings: mice, after pro-convulsant drugs or an electric current; cited from earlier work
generalized epilepsy = settings: eight adult patients with generalized epilepsy; cited from earlier work
seizures [4] = settings: 200 mg/day pure CBD, twelve institutionalized adult patients, open label; cited from earlier work
[5] = CBD 100 mg/kg oral, Day 1, females, Max
[6] = CBD 100 mg/kg oral, Day 1, females, Min
[7] = CBD 100 mg/kg oral, Day 1, females, individual animals (Subjects 115-120)
[8] = CBD 100 mg/kg oral, Day 1, males, Max
[9] = CBD 100 mg/kg oral, Day 1, males, Min
[10] = CBD 100 mg/kg oral, Day 1, males, individual animals (Subjects 15-20)

SMILES: C=C(C)[C@@H]1CCC(C)=C[C@H]1c1c(O)cc(CCCCC)cc1O [CBD, Cannabidiol]
- effect on percentage mortality ([1]; 100 mg/kg CBD (P≤0.01), 100 mg/kg CBDA (P=0.0656), CBD/CBDA ratio (P=0.0656)): significantly reduced
- effect on latency to seizure onset ([1]; 100 mg/kg CBD (P≤0.05), CBD/CBDA 9:1 (P≤0.05), CBDA 100 mg/kg (P=0.0929)): significantly increasing latency to onset
- median score for the maximum seizure severity ([1]; 100 mg/kg, PTZ 90 mg/kg i.p. 60 min after compound, scale of Table 6, n=15): 5
- tl/2 ([2]; CBD 100 mg/kg oral, Day 1, females, Geometric Mean): 5.9 h
- AUC0-inf [2, 5]: 32800 ng·h/mL
- AUC0-t [2, 5]: 32400 ng·h/mL
- CL/F [2, 5]: 632 mL/min/kg
- Cmax [2, 5]: 3780 ng/mL
- tl/2 [2, 5]: 8.4 h
- tmax [2, 5]: 8.0 h
- tl/2 ([2]; CBD 100 mg/kg oral, Day 1, females, Mean, N=4): 6.1 h
- tl/2 ([2]; CBD 100 mg/kg oral, Day 1, females, Median): 5.7 h
- AUC0-inf [2, 6]: 2640 ng·h/mL
- AUC0-t [2, 6]: 2540 ng·h/mL
- CL/F [2, 6]: 50.8 mL/min/kg
- Cmax [2, 6]: 411 ng/mL
- tl/2 [2, 6]: 4.5 h
- tmax [2, 6]: 1.0 h
- AUC0-inf [2, 7]: 32800 ng·h/mL and 3280 ng·h/mL and 22400 ng·h/mL and 2640 ng·h/mL
- AUC0-t [2, 7]: 31300 ng·h/mL and 3000 ng·h/mL and 20000 ng·h/mL and 22600 ng·h/mL and 2540 ng·h/mL and 32400 ng·h/mL
- CL/F [2, 7]: 50.8 mL/min/kg and 508 mL/min/kg and 74.5 mL/min/kg and 632 mL/min/kg
- Cmax [2, 7]: 3780 ng/mL and 655 ng/mL and 2520 ng/mL and 1900 ng/mL and 411 ng/mL and 3270 ng/mL
- tl/2 [2, 7]: 4.7 h and 8.4 h and 6.6 h and 4.5 h
- tmax [2, 7]: 2.0 h and 8.0 h and 1.0 h
- tl/2 ([2]; CBD 100 mg/kg oral, Day 1, males, Geometric Mean): 7.0 h
- AUC0-inf [2, 8]: 60500 ng·h/mL
- AUC0-t [2, 8]: 51800 ng·h/mL
- CL/F [2, 8]: 82.1 mL/min/kg
- Cmax [2, 8]: 4570 ng/mL
- tl/2 [2, 8]: 8.6 h
- tmax [2, 8]: 8.0 h
- tl/2 ([2]; CBD 100 mg/kg oral, Day 1, males, Mean, N=5): 7.2 h
- tl/2 ([2]; CBD 100 mg/kg oral, Day 1, males, Median): 7.7 h
- AUC0-inf [2, 9]: 20300 ng·h/mL
- AUC0-t [2, 9]: 17200 ng·h/mL
- CL/F [2, 9]: 27.5 mL/min/kg
- Cmax [2, 9]: 1400 ng/mL
- tl/2 [2, 9]: 5.4 h
- AUC0-inf [2, 10]: 55300 ng·h/mL and 60500 ng·h/mL and 20300 ng·h/mL and 31100 ng·h/mL
- AUC0-t [2, 10]: 47300 ng·h/mL and 51800 ng·h/mL and 33000 ng·h/mL and 17200 ng·h/mL and 28700 ng·h/mL and 26400 ng·h/mL
- CL/F [2, 10]: 30.1 mL/min/kg and 27.5 mL/min/kg and 82.1 mL/min/kg and 53.6 mL/min/kg
- Cmax [2, 10]: 3960 ng/mL and 4570 ng/mL and 3620 ng/mL and 1400 ng/mL and 2430 ng/mL and 3090 ng/mL
- tl/2 [2, 10]: 8.6 h and 7.7 h and 5.4 h and 8.5 h and 5.7 h
- tmax [2, 10]: 8.0 h
- AUC0-inf ([2]; female, dog, plasma, po, 100 mg/kg, CBD 100 mg/kg oral, Day 1, females, Geometric Mean, read-out: AUC0-inf): 8930 ng·h/mL
- AUC0-t ([2]; female, dog, plasma, po, 100 mg/kg, CBD 100 mg/kg oral, Day 1, females, Geometric Mean, read-out: AUC0-t): 12300 ng·h/mL
- CL/F ([2]; female, dog, plasma, po, 100 mg/kg, CBD 100 mg/kg oral, Day 1, females, Geometric Mean, read-out: CL/F): 187 mL/min/kg
- Cmax ([2]; female, dog, plasma, po, 100 mg/kg, CBD 100 mg/kg oral, Day 1, females, Geometric Mean, read-out: Cmax): 1590 ng/mL
- Vd/F ([2]; female, dog, plasma, po, 100 mg/kg, CBD 100 mg/kg oral, Day 1, females, Geometric Mean): 94.8 L/kg
- AUC0-inf ([2]; female, dog, plasma, po, 100 mg/kg, CBD 100 mg/kg oral, Day 1, females, Mean, N=4, read-out: AUC0-inf): 15300 ng·h/mL
- CL/F ([2]; female, dog, plasma, po, 100 mg/kg, CBD 100 mg/kg oral, Day 1, females, Mean, N=4, read-out: CL/F): 316 mL/min/kg
- Vd/F ([2]; female, dog, plasma, po, 100 mg/kg, CBD 100 mg/kg oral, Day 1, females, Mean, N=4): 169 L/kg
- AUC0-t ([2]; female, dog, plasma, po, 100 mg/kg, CBD 100 mg/kg oral, Day 1, females, Mean, N=6, read-out: AUC0-t): 18600 ng·h/mL
- Cmax ([2]; female, dog, plasma, po, 100 mg/kg, CBD 100 mg/kg oral, Day 1, females, Mean, N=6, read-out: Cmax): 2090 ng/mL
- AUC0-inf ([2]; female, dog, plasma, po, 100 mg/kg, CBD 100 mg/kg oral, Day 1, females, Median, read-out: AUC0-inf): 12800 ng·h/mL
- AUC0-t ([2]; female, dog, plasma, po, 100 mg/kg, CBD 100 mg/kg oral, Day 1, females, Median, read-out: AUC0-t): 21300 ng·h/mL
- CL/F ([2]; female, dog, plasma, po, 100 mg/kg, CBD 100 mg/kg oral, Day 1, females, Median, read-out: CL/F): 291 mL/min/kg
- Cmax ([2]; female, dog, plasma, po, 100 mg/kg, CBD 100 mg/kg oral, Day 1, females, Median, read-out: Cmax): 2210 ng/mL
- Vd/F ([2]; female, dog, plasma, po, 100 mg/kg, CBD 100 mg/kg oral, Day 1, females, Median): 145 L/kg
- tmax ([2]; female, dog, plasma, po, 100 mg/kg, CBD 100 mg/kg oral, Day 1, females, Median, read-out: tmax): 4 h
- AUC0-t ([2]; female, dog, plasma, po, 100 mg/kg, comparative Table 11, females, 100 mg/kg, Day 1, mean, read-out: AUC0-t): 18600 ng·h/mL
- Cmax ([2]; female, dog, plasma, po, 100 mg/kg, comparative Table 11, females, 100 mg/kg, Day 1, mean, read-out: Cmax): 2090 ng/mL
- AUC0-inf ([2]; male, dog, plasma, po, 100 mg/kg, CBD 100 mg/kg oral, Day 1, males, Geometric Mean, read-out: AUC0-inf): 37600 ng·h/mL
- AUC0-t ([2]; male, dog, plasma, po, 100 mg/kg, CBD 100 mg/kg oral, Day 1, males, Geometric Mean, read-out: AUC0-t): 31900 ng·h/mL
- CL/F ([2]; male, dog, plasma, po, 100 mg/kg, CBD 100 mg/kg oral, Day 1, males, Geometric Mean, read-out: CL/F): 44.4 mL/min/kg
- Cmax ([2]; male, dog, plasma, po, 100 mg/kg, CBD 100 mg/kg oral, Day 1, males, Geometric Mean, read-out: Cmax): 2970 ng/mL
- Vd/F ([2]; male, dog, plasma, po, 100 mg/kg, CBD 100 mg/kg oral, Day 1, males, Geometric Mean): 27 L/kg
- AUC0-inf ([2]; male, dog, plasma, po, 100 mg/kg, CBD 100 mg/kg oral, Day 1, males, Mean, N=5, read-out: AUC0-inf): 40500 ng·h/mL
- CL/F ([2]; male, dog, plasma, po, 100 mg/kg, CBD 100 mg/kg oral, Day 1, males, Mean, N=5, read-out: CL/F): 48.1 mL/min/kg
- Vd/F ([2]; male, dog, plasma, po, 100 mg/kg, CBD 100 mg/kg oral, Day 1, males, Mean, N=5): 29.9 L/kg
- AUC0-t ([2]; male, dog, plasma, po, 100 mg/kg, CBD 100 mg/kg oral, Day 1, males, Mean, N=6, read-out: AUC0-t): 34100 ng·h/mL
- Cmax ([2]; male, dog, plasma, po, 100 mg/kg, CBD 100 mg/kg oral, Day 1, males, Mean, N=6, read-out: Cmax): 3180 ng/mL
- AUC0-inf ([2]; male, dog, plasma, po, 100 mg/kg, CBD 100 mg/kg oral, Day 1, males, Median, read-out: AUC0-inf): 35400 ng·h/mL
- AUC0-t ([2]; male, dog, plasma, po, 100 mg/kg, CBD 100 mg/kg oral, Day 1, males, Median, read-out: AUC0-t): 30800 ng·h/mL
- CL/F ([2]; male, dog, plasma, po, 100 mg/kg, CBD 100 mg/kg oral, Day 1, males, Median, read-out: CL/F): 47.1 mL/min/kg
- Cmax ([2]; male, dog, plasma, po, 100 mg/kg, CBD 100 mg/kg oral, Day 1, males, Median, read-out: Cmax): 3360 ng/mL
- Vd/F ([2]; male, dog, plasma, po, 100 mg/kg, CBD 100 mg/kg oral, Day 1, males, Median): 22.3 L/kg
- tmax ([2]; male, dog, plasma, po, 100 mg/kg, CBD 100 mg/kg oral, Day 1, males, Median, read-out: tmax): 6 h
- tmax ([2]; male, dog, plasma, po, 100 mg/kg, CBD 100 mg/kg oral, Day 1, males, individual animals (Subjects 15-20), read-out: tmax): 6 h
- AUC0-t ([2]; male, dog, plasma, po, 100 mg/kg, comparative Table 10, males, 100 mg/kg, Day 1, mean, read-out: AUC0-t): 34100 ng·h/mL
- Cmax ([2]; male, dog, plasma, po, 100 mg/kg, comparative Table 10, males, 100 mg/kg, Day 1, mean, read-out: Cmax): 3180 ng/mL
- prevention of seizures (seizures [3]): able to prevent seizures in mice
- reduction of seizures (generalized epilepsy): marked reduction of seizures in 4 of the patients
- control of seizures (seizures [4]): ineffective in controlling seizures
